Paper PMC12292835, “Amylin Receptor 1 Mutagenesis Revealed a Potential Role of Calcitonin Serine 29 in Receptor Interaction” (Biomedicines, 2025)
Blank lines part the entries; values can stand above or below the substance they belong to. Where no end group is shown, it is not given here.

What was measured:
amylin receptors = settings: mutated human amylin, cell-based system; cited from earlier work
Excerpt: Receptor–ligand interaction studies with alanine-scanning mutagenesis have been reported for amylin receptors. Lee et al. first introduced alanine-scanning mutagenesis to calcitonin and AC413 peptides and examined the role of each amino acid in the interaction with amylin receptor 1 ECD [20]. They reported critical amino acids of peptide ligands for amylin receptor 1 ECD binding. Their results were supported by the following structural studies with the calcitonin receptor ECD and salmon calcitonin fragments. Recently, Lee S introduced alanine-scanning mutagenesis to a rat amylin ...

[1] = molecular target: T1, amylin receptor 1 ECD with the E123A mutation (Homo sapiens, UniProt O60894+P30988, E123A); assay: Competition binding assay with non-labeled sCT(22–32), E123A; settings: competition with 10 nM FITC-sCT(22–32), receptor ECD E123A 365 nM, 1 hour, anisotropy
T1 construct: pHLsec/hRAMP1.24–111-(GSA)3-hCTR.34–141.E123A-H6 (D-pJJ004); H6 (hexahistidine) (C); made in house; host or cells: HEK293 (transient transfection, secreted, N-glycosylated)
T1 sequence (O60894 24-111): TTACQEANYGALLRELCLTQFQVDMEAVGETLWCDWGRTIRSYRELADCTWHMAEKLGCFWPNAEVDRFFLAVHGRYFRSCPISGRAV
T1 sequence (P30988 34-141 E123A): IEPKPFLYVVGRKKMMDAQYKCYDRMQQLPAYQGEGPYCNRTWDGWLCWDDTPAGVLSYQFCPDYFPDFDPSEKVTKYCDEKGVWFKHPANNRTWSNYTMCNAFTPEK
Procedure: (§1) The overall procedure of the FP binding assay with a saturation binding format was previously described. A total of 10 nM FITC-labeled sCT(22–32) and 10 nM FITC-labeled AC413(6–25) with Y25P mutation were used for the receptor–ligand binding assay. For the saturation binding format, the non-linear regression curves were generated by using user-defined equations that were previously described for affinity calculation. FITC-labeled peptide probes were incubated for 1 h at room temperature with the purified receptor protein prior to fluorescence signal measurement. A BioTek Synergy H1 microplate reader (Agilent, Santa Clara, CA, USA) was used to evaluate fluorescence polarization/anisotropy. […] When total fluorescence intensity of the FITC-labeled probes was altered with receptor binding by more than 10% from the starting fluorescence value, the anisotropy was adjusted to reflect the fluorescence change as previously described. […] PRISM 5.0 was fully functional, with the user-defined equations used predicting KD values from fluorescence polarization/anisotropy. […]
(§2) The mixture of the competitive peptide with varying concentrations, 10 nM FITC -sCT(22 –32), and the receptor ECD protein with the concentration described earlier was incubated for 1 hour. The anisotropy signal was measured by using a BioTek Synergy H1 microplate reader (Agilent, Santa Clara, CA, USA). […]

[2] = molecular target: T2, wild-type amylin receptor 1 ECD (Homo sapiens, UniProt O60894+P30988); assay: Competition binding assay with non-labeled sCT(22–32), WT; settings: competition with 10 nM FITC-sCT(22–32), receptor ECD 81 nM, 1 hour, anisotropy
T2 construct: pHLsec/hRAMP1.24–111-(GSA)3-hCTR.34–141-H6 (H-pSL005); H6 (hexahistidine) (C); made in house; host or cells: HEK293 (transient transfection, secreted, N-glycosylated)
T2 sequence (O60894 24-111): as the sequence (O60894 24-111) above
T2 sequence (P30988 34-141): as the sequence (P30988 34-141 E123A) above, with A90E counted along it
Procedure: as §1, §2

[3] = molecular target: T3, amylin receptor 1 ECD with the E123D mutation (Homo sapiens, UniProt O60894+P30988, E123D); assay: Competition binding assay with non-labeled sCT(22–32), E123D; settings: competition with 10 nM FITC-sCT(22–32), receptor ECD E123D 53 nM, 1 hour, anisotropy
T3 construct: pHLsec/hRAMP1.24–111-(GSA)3-hCTR.34–141.E123D-H6 (D-pJJ001); H6 (hexahistidine) (C); made in house; host or cells: HEK293 (transient transfection, secreted, N-glycosylated)
T3 sequence (O60894 24-111): as the sequence (O60894 24-111) above
T3 sequence (P30988 34-141 E123D): as the sequence (P30988 34-141 E123A) above, with A90D counted along it
Procedure: as §1, §2

[4] = test system: calcitonin receptor N135A, cAMP production; settings: cited from earlier work
Procedure: (§3) Several receptor–ligand interaction studies introducing mutagenesis to calcitonin and amylin receptors are also available. Among these previous reports, an extensive receptor–ligand interaction study was reported where alanine-scanning mutagenesis was applied to the upper segment of transmembrane helix 1 (TM1) of the calcitonin receptor and its extension into the receptor ECD [31]. Although the study focused on TM1, some residues of calcitonin receptor ECD were mutated and were tested for peptide ligand interaction. When the N135 residue was mutated to alanine, the ...

[5] = test system: calcitonin receptor N135A, phosphorylation of extracellular signal-regulated kinase (ERK); settings: cited from earlier work
Procedure: as §3

pancreatic β-cells = settings: in words; cited from earlier work
Excerpt: (§4) Due to the inherent nature of the calcitonin receptor as the main component of the functional amylin receptor, a calcitonin peptide is used as an agonist for amylin receptors. […] Accordingly, salmon calcitonin is well-characterized as a dual agonist for calcitonin and amylin receptors and is commonly used for research targeting amylin receptors.

[6] = cited from earlier work
Excerpt: as §4

[7] = test system: calcitonin receptor N135A; settings: cited from earlier work
Procedure: as §3

[8] = test system: calcitonin receptor D101A; settings: cAMP production, calcitonin receptor activation, cited from earlier work
Procedure: (§5) Gingell et al. addressed the receptor interaction with human calcitonin and rat amylin by introducing mutations to the peptide-binding pocket of the calcitonin receptor and amylin receptor 1 ECDs. The peptide potency for calcitonin receptor and amylin receptor 1 activation was investigated by measuring cAMP production. Multiple residues located in the peptide-binding pocket were tested for peptide-mediated receptor activation. They reported the mutational effects of D101A and N124A that were used in the current study. Consistent with our binding results, the D101A mutation markedly decr ...

[9] = test system: calcitonin receptor and amylin receptor 1 with N124A; settings: cAMP production, in words; cited from earlier work
Excerpt: The N124 residue of the calcitonin receptor appeared dispensable for amylin receptor 1 activation mediated by calcitonin or amylin. The affinity decreases for receptor ECD by 8-fold and more may be insufficient to produce the potency decrease in the activation of the full-length calcitonin and amylin rec ...

[10] = test system: amylin receptor 1 with D101A; settings: cAMP production, amylin receptor 1 activation; cited from earlier work
Procedure: as §5

[11] = test system: human calcitonin and amylin receptors; settings: in words; cited from earlier work
Excerpt: as §4

Substance: A5S: human amylin with mutation A5S (KCNTSTCATQRLANFLVHSSNNFGAILSSTNVGSNTY; ends and bridges not checked; cysteine pairing not given here; UniProt P10997 34-70, looked up, variant A5S)
- amylin receptor activation potency (amylin receptors): significantly increased the amylin receptor activation potency

Substance: Q10A: human amylin with mutation Q10A (KCNTATCATARLANFLVHSSNNFGAILSSTNVGSNTY; ends and bridges not checked; cysteine pairing not given here; UniProt P10997 34-70, looked up, variant Q10A)
- amylin receptor activation potency (amylin receptors): significantly increased the amylin receptor activation potency

Substance: V17A: human amylin with mutation V17A (KCNTATCATQRLANFLAHSSNNFGAILSSTNVGSNTY; ends and bridges not checked; cysteine pairing not given here; UniProt P10997 34-70, looked up, variant V17A)
- amylin receptor activation potency (amylin receptors): significantly increased the amylin receptor activation potency

- Ki [1]: 2510 nM
- Ki [2]: 891 nM
- Ki [3]: 1230 nM
Substance: YPRTNTGSGTP-NH2 [non-labeled sCT(22–32)]

Substance: calcitonin
- decrease of functional affinity (pKA) [4]: less than 10 fold
- decrease of functional affinity (pKA) [5]: less than 10 fold

Substance: human amylin: peptide hormone secreted from pancreatic β-cells, 37 amino acids (KCNTATCATQRLANFLVHSSNNFGAILSSTNVGSNTY; not fully specified (C-terminus, bridges); cysteine pairing not given here; UniProt P10997 34-70, looked up)
- effect of aggregates on pancreatic β-cells (pancreatic β-cells): harm pancreatic β-cells
- aggregation ([6]; human amylin): reported to form aggregates

Substance: human calcitonin: peptide hormone
- effect of N135A on binding [7]: abolished the binding
- decrease of potency ([8]; D101A): 17 fold
- effect of N124A on potency [9]: did not significantly change the potency

Substance: porcine calcitonin: peptide hormone (CSNLSTCVLSAYWRNLNNFHRFSGMGFGPETP; ends and bridges not checked; cysteine pairing not given here; UniProt P01259 1-32, looked up)
- effect of N135A on binding [7]: abolished the binding

Substance: rat amylin: rodent (rat/mouse) amylin
- aggregation propensity ([6]; rodent (rat/mouse) amylin versus human amylin): less propensity for forming aggregates than human amylin
- decrease of potency [10]: 68 fold
- effect of D101A on potency ([8]; in words): not significantly altered
- effect of N124A on potency [9]: did not significantly change the potency

Substance: salmon calcitonin
- binding and receptor activation potency [11]: strong receptor activation potency
